Publication PMC7409168, “The Multidrug Resistance-Reversing Activity of a Novel Antimicrobial Peptide” (Cancers, 2020)
Read-outs that look alike come from different tables or passages of the source. Residues, ends and D or L forms follow the SMILES beside them.

Key:
KB-3-1 = assay: MTT cytotoxicity of ABCB1 substrates with or without a reversal agent, KB-3-1; type: cell-based, human; conditions: no reversal agent; for IC50: mean ± SD, at least three independent experiments in triplicate, read-out: IC50 of the anticancer drug alone; for RF (resistant fold) of the anticancer drug alone: IC50 relative to drug alone in KB-3-1
Excerpt: (§1) The drug-selected ABCG2-overexpressing non-small cell lung cancer (NSCLC) cell line NCI-H460/MX20 and its parental NCI-H460 cell line, and the ABCB1 gene-transfected HEK293 cells, HEK293/ABCB1, and its parental empty vector transfected HEK293 cells, HEK293/pcDNA3.1 were provided by Drs. Susan E. Bates and Robert Robey (NIH, MD). The drug-resistant ABCB1 overexpressing human epidermal carcinoma cell line KB-C2 and its parental KB-3-1 cell line were generously provided by Dr. Shin-Ichi Akiyama (Kagoshima University, Kagoshima, Japan). All cell lines were cultured in complete Dulbecco’s modified Eagle’s medium(DMEM) (Hyclone, GE Healthcare Life Sciences, Pittsburgh, PA, USA) with the addition of 10% fetal bovine serum (FBS) and 1% penicillin/streptomycin (Hyclone, GE Healthcare Life Sciences, Pittsburgh, PA, USA). The transfected cell lines were selected in complete medium with addition of 2 mg/mL of Geneticin (Enzo Life Sciences, Farmingdale, NY, USA) for selection, KB-C2 cells were continually treated with complete medium and […], and NCI-H460/MX20 cells were cultured with 20 ng/mL mitoxantrone added to the complete medium. All drug-treated cell lines were recovered for more than 2 weeks without treatment before their use. The culture condition was in a humidified incubator at 37 °C with 5% CO2.
(§2) The final absorbance of each well was measured by Microplate Spectrophotometer (Fisher Sci., Fair Lawn, NJ, USA) at 570 nm.

KB-C2 = assay: MTT cytotoxicity of ABCB1 substrates with or without a reversal agent, KB-C2; conditions: for RF (resistant fold) of the anticancer drug alone: IC50 in KB-C2 divided by IC50 in KB-3-1
Excerpt: as §1, §2

HEK293/pcDNA3.1 = assay: MTT cytotoxicity of ABCB1 substrates with or without a reversal agent, HEK293/pcDNA3.1; type: cell-based; conditions: no reversal agent; for IC50: mean ± SD, at least three independent experiments in triplicate, read-out: IC50 of the anticancer drug alone; for RF (resistant fold) of the anticancer drug alone: relative to drug alone in HEK293/pcDNA3.1
Excerpt: as §1, §2

NCI-H460 = assay: MTT cytotoxicity of ABCG2 substrates with or without a reversal agent, NCI-H460; type: cell-based, human; conditions: for IC50 / RF (resistant fold) of the anticancer drug alone: no reversal agent; for IC50: mean ± SD, at least three independent experiments in triplicate, read-out: IC50 of the anticancer drug alone; for RF (resistant fold) of the anticancer drug alone: relative to drug alone in NCI-H460
Excerpt: as §1, §2

NCI-H460/MX20 = assay: MTT cytotoxicity of ABCG2 substrates with or without a reversal agent, NCI-H460/MX20; type: cell-based, human; conditions: for IC50: NCI-H460/MX20, mean ± SD, at least three independent experiments in triplicate, read-out: IC50 of the anticancer drug alone; for IC50 / RF (resistant fold) of the anticancer drug alone: no reversal agent
Excerpt: as §1, §2

HEK293/ABCB1 = assay: MTT cytotoxicity of ABCB1 substrates with or without a reversal agent, HEK293/ABCB1; type: cell-based; conditions: no reversal agent; for IC50: HEK293/ABCB1, mean ± SD, at least three independent experiments in triplicate, read-out: IC50 of the anticancer drug alone; for RF (resistant fold) of the anticancer drug alone: IC50 in HEK293/ABCB1 divided by IC50 in HEK293/pcDNA3.1
Excerpt: as §1, §2

in vitro = conditions: human
Excerpt: as §1, §2

parental cells (KB-3-1) = conditions: read-out: IC50 of peptide; KB-3-1 (parental); MTT, 570 nm; at least three independent triplicate experiments
Excerpt: as §1, §2

parental cells NCI-H460 = conditions: read-out: IC50 of peptide, MTT, 570 nm, at least three independent experiments in triplicate
Excerpt: as §1, §2

ABCB1 [1] = target: T1, ABCB1 (Homo sapiens, UniProt P08183); conditions: XH-14C 0–40 μM; vanadate-sensitive; phosphate read at 800 nm; three independent experiments
Description: The vanadate-sensitive membrane vesicles ABCB1 and ABCG2 ATPase activity were determined as previously described, and the ABCB1- and ABCG2-overexpressing cell membranes were purchased from BD Biosciences (San Jose, CA, USA). The ATPase activities were calculated based on the measurement of inorganic phosphate (IP)detected using a spectrophotometer at 800 nm.

ABCB1 on KB-C2 cells = type: cell-based, human
Description: (§3) [^3H]-paclitaxel (31 Ci/mmol, Moravek Biochemicals, Brea, CA, USA) was used to measure the drug accumulation and efflux as previously described. The only difference is that after the cells were seeded evenly in 24-well plate, the cells were incubated in the presence or absence of XH-14C and a parallel positive reversal agent for […]. Liquid scintillation cocktail used to measure the radioactivity was purchased from MP Biomedicals, Inc (St. Ana, CA, USA) and the radioactivity of different groups were read with the Packard TRI-CARB1 190‘A liquid scintillation analyzer. A parallel well of cells for each group was set up for cell number counting at the end of the assay for the purpose of data normalization.

[2] = tested on: ABCB1-overexpressing KB-C2 cells; type: cell-based, human
Description: as §3

KB-3-1 cells = assay: [3H]-paclitaxel efflux assay in KB-3-1; type: cell-based, human; conditions: 2 h, with or without a reversal agent
Description: as §3

ABCB1 [3] = target: T1, ABCB1; set-up: purchased BD Biosciences (San Jose, CA, USA); method as in PMID 25456855; conditions: non-competitive inhibitor; cited from earlier work
[4] = Homo sapiens, KB-C2, read-out: IC50 of the anticancer drug alone
[5] = IC50 in NCI-H460/MX20 divided by IC50 in NCI-H460
[6] = KB-C2 cells (ABCB1-overexpressing human epidermal carcinoma)
[7] = NCI-H460/MX20 cells (ABCG2-overexpressing NSCLC)

T1 sequence (P08183 whole entry): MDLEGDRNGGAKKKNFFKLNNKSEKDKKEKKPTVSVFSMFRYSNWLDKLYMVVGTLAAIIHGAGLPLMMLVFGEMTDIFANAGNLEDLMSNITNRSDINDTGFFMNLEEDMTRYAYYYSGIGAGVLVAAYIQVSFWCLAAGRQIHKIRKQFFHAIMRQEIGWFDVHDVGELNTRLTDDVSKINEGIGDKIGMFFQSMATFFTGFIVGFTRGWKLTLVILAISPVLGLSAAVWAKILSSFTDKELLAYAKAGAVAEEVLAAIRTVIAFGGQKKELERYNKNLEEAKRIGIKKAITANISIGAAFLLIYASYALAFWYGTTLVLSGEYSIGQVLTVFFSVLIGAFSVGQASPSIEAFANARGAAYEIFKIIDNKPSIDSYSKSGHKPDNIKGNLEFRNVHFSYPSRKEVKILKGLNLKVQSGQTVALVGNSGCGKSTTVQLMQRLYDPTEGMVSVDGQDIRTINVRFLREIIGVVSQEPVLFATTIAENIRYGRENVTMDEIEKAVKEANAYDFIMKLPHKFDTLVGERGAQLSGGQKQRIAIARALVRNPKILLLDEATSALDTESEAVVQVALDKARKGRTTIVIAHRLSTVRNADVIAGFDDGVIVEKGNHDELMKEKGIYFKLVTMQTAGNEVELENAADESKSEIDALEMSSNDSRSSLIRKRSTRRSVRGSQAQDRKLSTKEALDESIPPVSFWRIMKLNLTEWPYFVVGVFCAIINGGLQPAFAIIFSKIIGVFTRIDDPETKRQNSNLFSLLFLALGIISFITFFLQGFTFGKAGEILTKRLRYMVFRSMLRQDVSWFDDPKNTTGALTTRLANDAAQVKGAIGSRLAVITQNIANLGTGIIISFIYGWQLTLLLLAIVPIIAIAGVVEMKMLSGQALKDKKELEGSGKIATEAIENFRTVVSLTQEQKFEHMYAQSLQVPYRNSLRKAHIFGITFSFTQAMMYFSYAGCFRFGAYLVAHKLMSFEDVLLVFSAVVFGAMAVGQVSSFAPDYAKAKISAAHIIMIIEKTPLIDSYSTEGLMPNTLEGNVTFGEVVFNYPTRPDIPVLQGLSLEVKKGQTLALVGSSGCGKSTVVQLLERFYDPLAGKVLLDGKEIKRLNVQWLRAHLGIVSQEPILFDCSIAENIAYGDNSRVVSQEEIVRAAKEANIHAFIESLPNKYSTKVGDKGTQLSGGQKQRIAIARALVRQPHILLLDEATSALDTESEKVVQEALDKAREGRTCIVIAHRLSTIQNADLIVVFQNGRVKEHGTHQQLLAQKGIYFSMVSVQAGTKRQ

SMILES: N.N.[Cl][Pt][Cl] [Cisplatin, cisplatin]
- IC50 (KB-3-1): 1.64 ± 0.487 µM
- IC50 (KB-C2; read-out: IC50 of the anticancer drug alone, KB-C2, no reversal agent, mean ± SD, at least three independent experiments in triplicate): 1.76 ± 0.377 µM
- IC50 (HEK293/pcDNA3.1): 2.27 ± 0.489 µM
- IC50 (NCI-H460): 2.76 ± 0.23 µM
- IC50 (NCI-H460/MX20): 3.15 ± 0.47 µM

SMILES: COc1cccc2c1C(=O)c1c(O)c3c(c(O)c1C2=O)C[C@@](O)(C(=O)CO)C[C@@H]3O[C@H]1C[C@H](N)[C@H](O)[C@H](C)O1 [Doxorubicin, doxorubicin]
- IC50 (KB-3-1; Homo sapiens): 1.28 ± 0.189 µM
- RF (resistant fold) of the anticancer drug alone (KB-3-1): 1.00
- IC50 (KB-C2; [4]): 67.6 ± 2.46 µM
- RF (resistant fold) of the anticancer drug alone (KB-C2; no reversal agent): 53.0
- IC50 (HEK293/pcDNA3.1; Homo sapiens): 1.226 ± 0.00188 µM
- RF (resistant fold) of the anticancer drug alone (HEK293/pcDNA3.1): 1.00
- IC50 (HEK293/ABCB1): 32.6 ± 4.81 µM
- RF (resistant fold) of the anticancer drug alone (HEK293/ABCB1): 26.6

SMILES: COc1ccc2c3c([nH]c2c1)[C@H](CC(C)C)N1C(=O)[C@H](CCC(=O)OC(C)(C)C)NC(=O)[C@@H]1C3 [Ko143]
- RF of cisplatin in combination with reversal agent (NCI-H460; cisplatin + reversal agent 3 μM, relative to NCI-H460): 1.26
- RF of mitoxantrone in combination with reversal agent (NCI-H460; mitoxantrone + reversal agent 3 μM, relative to NCI-H460): 1.10
- RF of topotecan in combination with reversal agent (NCI-H460; topotecan + reversal agent 3 μM, relative to NCI-H460): 0.76
- RF of cisplatin in combination with reversal agent (NCI-H460/MX20; cisplatin + reversal agent 3 μM, IC50 in NCI-H460/MX20 divided by IC50 in NCI-H460): 1.23
- RF of mitoxantrone in combination with reversal agent (NCI-H460/MX20; mitoxantrone + reversal agent 3 μM, IC50 in NCI-H460/MX20 divided by IC50 in NCI-H460): 2.28
- RF of topotecan in combination with reversal agent (NCI-H460/MX20; topotecan + reversal agent 3 μM, IC50 in NCI-H460/MX20 divided by IC50 in NCI-H460): 1.96

SMILES: O=C1c2c(O)ccc(O)c2C(=O)c2c(NCCNCCO)ccc(NCCNCCO)c21 [Mitoxantrone, mitoxantrone]
- IC50 (NCI-H460; Homo sapiens): 0.039 ± 0.005 µM
- RF (resistant fold) of the anticancer drug alone (NCI-H460): 1.00
- IC50 (NCI-H460/MX20; Homo sapiens): 36.6 ± 4.53 µM
- RF (resistant fold) of the anticancer drug alone (NCI-H460/MX20; [5]): 937

SMILES: CC(=O)O[C@H]1C(=O)[C@@]2(C)[C@H]([C@H](OC(=O)c3ccccc3)[C@]3(O)C[C@H](OC(=O)[C@H](O)[C@@H](NC(=O)c4ccccc4)c4ccccc4)C(C)=C1C3(C)C)[C@]1(OC(C)=O)CO[C@@H]1C[C@@H]2O [Paclitaxel, paclitaxel]
- IC50 (KB-3-1; Homo sapiens): 0.003 ± 0.0005 µM
- RF (resistant fold) of the anticancer drug alone (KB-3-1): 1.00
- IC50 (KB-C2; [4]): 1.31 ± 0.271 µM
- RF (resistant fold) of the anticancer drug alone (KB-C2; no reversal agent): 437
- IC50 (HEK293/pcDNA3.1; Homo sapiens): 0.0143 ± 0.00153 µM
- RF (resistant fold) of the anticancer drug alone (HEK293/pcDNA3.1): 1.00
- IC50 (HEK293/ABCB1): 0.306 ± 0.0454 µM
- RF (resistant fold) of the anticancer drug alone (HEK293/ABCB1): 21.38

SMILES: CC[C@@]1(O)C(=O)OCc2c1cc1n(c2=O)Cc2cc3c(CN(C)C)c(O)ccc3nc2-1 [Topotecan, topotecan]
- IC50 (NCI-H460; Homo sapiens): 0.049 ± 0.006 µM
- RF (resistant fold) of the anticancer drug alone (NCI-H460): 1.00
- IC50 (NCI-H460/MX20; Homo sapiens): 39.2 ± 4.85 µM
- RF (resistant fold) of the anticancer drug alone (NCI-H460/MX20; [5]): 799

SMILES: CC[C@H](C)[C@H](NC(=O)[C@H](CCCNC(=N)N)NC(=O)[C@H](CCCCN)NC(=O)[C@@H](NC(=O)[C@@H](N)Cc1ccccc1)[C@@H](C)CC)C(=O)N[C@@H](C)C(=O)N[C@@H](CCCNC(=N)N)C(=O)N[C@@H](CC(C)C)C(=O)N[C@@H](CC(C)C)C(=O)N[C@@H](CCCNC(=N)N)C(=O)N[C@@H](CCCCN)C(=O)N[C@H](C(=O)N[C@@H](CCCCN)C(=O)N[C@@H](CCCNC(=N)N)C(=O)O)[C@@H](C)CC [XH-14A] (H-FIKRIARLLRKIKR-OH)
- IC50 (in vitro; [6]): 22.4 µM
- IC50 (in vitro; [7]): 8.22 µM
- IC50 (parental cells (KB-3-1)): 8.73 µM
- IC50 (parental cells NCI-H460): 10.1 µM

SMILES: CC[C@H](C)[C@H](NC(=O)[C@H](CCCNC(=N)N)NC(=O)[C@H](CCCCN)NC(=O)[C@@H](NC(=O)[C@@H](N)Cc1ccccc1)[C@@H](C)CC)C(=O)N[C@@H](C)C(=O)N[C@@H](CCCNC(=N)N)C(=O)N[C@@H](CC(C)C)C(=O)N[C@@H](CC(C)C)C(=O)N[C@@H](CCCNC(=N)N)C(=O)N[C@@H](CCCCN)C(=O)N[C@H](C(=O)N[C@@H](Cc1ccccc1)C(=O)N[C@@H](CCCNC(=N)N)C(=O)O)[C@@H](C)CC [XH-14B] (H-FIKRIARLLRKIFR-OH)
- IC50 (in vitro; [6]): 8.38 µM
- IC50 (in vitro; [7]): 7.28 µM
- IC50 (parental cells (KB-3-1)): 10 µM
- IC50 (parental cells NCI-H460): 9.37 µM

SMILES: CC[C@H](C)[C@H](NC(=O)[C@H](CCCNC(=N)N)NC(=O)[C@H](CCCCN)NC(=O)[C@@H](NC(=O)[C@@H](N)Cc1ccccc1)[C@@H](C)CC)C(=O)N[C@@H](C)C(=O)N[C@@H](CCCNC(=N)N)C(=O)N[C@@H](CC(C)C)C(=O)N[C@@H](CC(C)C)C(=O)N[C@@H](CCCNC(=N)N)C(=O)N[C@@H](CCCCN)C(=O)N[C@H](C(=O)N[C@@H](Cc1c[nH]c2ccccc12)C(=O)N[C@@H](CCCNC(=N)N)C(=O)O)[C@@H](C)CC [XH-14C] (H-FIKRIARLLRKIWR-OH)
- IC50 (in vitro; [6]): 7.82 µM
- IC50 (in vitro; [7]): 8.3 µM
- IC50 (parental cells (KB-3-1)): 8.12 µM
- IC50 (parental cells NCI-H460): 9.07 µM
- effect on cytotoxicity of cisplatin (KB-C2; non-substrate of ABCB1, all tested cell lines): no effect on the cytotoxicity of cisplatin
- maximal stimulation of ABCB1 ATPase activity (ABCB1 [1]): 3.28 fold

SMILES: CC(=O)O[C@H]1C(=O)[C@@]2(C)[C@H]([C@H](OC(=O)c3ccccc3)[C@]3(O)C[C@H](OC(=O)[C@H](O)[C@@H](NC(=O)c4ccccc4)c4ccccc4)C(C)=C1C3(C)C)[C@]1(OC(C)=O)CO[C@@H]1C[C@@H]2O [[^3H]-paclitaxel]
- decrease in intracellular [3H]-paclitaxel (efflux) without XH-14C (ABCB1 on KB-C2 cells): about 50%
- intracellular [3H]-paclitaxel in KB-C2, fold lower than in KB-3-1 [2]: more than 100 fold
- change of cellular [3H]-paclitaxel in KB-3-1 (KB-3-1 cells): did not significantly change

SMILES: COc1cc2c(cc1OC)CN(CCc1ccc(NC(=O)c3cc(OC)c(OC)cc3NC(=O)c3cnc4ccccc4c3)cc1)CC2 [tariquidar]
- ABCB1 ATPase stimulation (ABCB1 [3]): able to stimulate ABCB1 ATPase activity
